# Laboratory results as given in patent US8962655B2, “Composition for treatment of undifferentiated gastric cancer” (Eisai R&D Management Co., Ltd., priority 2007, dated 2015).
# What was measured:
# Assay type in all cases: in vivo
# [1] = system: human scirrhous gastric cancer cell line (HSC-39); assay: Combination use with 5-fluorouracil in subcutaneous transplanted (xenograft) models of HSC-39; conditions: HSC-39 xenograft, nude mice
# Method: (§1) Human scirrhous gastric cancer cell line HSC-39 (purchased from Immuno-Biological Laboratories Co., Ltd.) was cultured in RPMI1640 (containing 10% FBS) in a 5% carbon dioxide gas incubator at 37° C. to about 80% confluence, and then the cells were collected with trypsin-EDTA. A 5×10^7 cells/mL suspension was prepared with a phosphate buffer, and each 0.1 mL of the resulting cell suspension was subcutaneously transplanted to nude mice at the side of their bodies. Thirteen days after the transplantation, 4-(3-chloro-4-(cyclopropylaminocarbonyl)aminophenoxy)-7-methoxy-6-quinolinecarboxamide (3, 10 or 30 mg/kg, once a day for four weeks, oral) and 5-fluorouracil (Kyowa Hakko) (50 mg/kg, every four days for three times, intravenous) were administered alone or in combination. The major and minor axes of tumors were measured with Digimatic caliper (Mitsutoyo Corporation), and tumor volumes and relative tumor volumes were calculated according to the following formulae: […]
# [2] = system: human scirrhous gastric cancer cell line (HSC-39); assay: Combination use with irinotecan hydrochloride in subcutaneous transplanted (xenograft) models of HSC-39; conditions: once a day for four weeks, oral, HSC-39 xenograft, nude mice
# Method: Human scirrhous gastric cancer cell line HSC-39 (purchased from Immuno-Biological Laboratories Co,. Ltd.) was cultured in RPMI1640 (containing 10% FBS) in a 5% carbon dioxide gas incubator at 37° C. to about 80% confluence, and then the cells were collected with trypsin-EDTA. A 5×10^7 cells/mL suspension was prepared with a phosphate buffer, and each 0.1 mL of the resulting cell suspension was subcutaneously transplanted to nude mice at the side of their bodies.
# Twelve days after the transplantation, 4-(3-chloro-4-(cyclopropylaminocarbonyl)aminophenoxy)-7-methoxy-6-quinolinecarboxamide (3, 10 or 30 mg/kg, once a day for four weeks, oral) and irinotecan hydrochloride (Daiichi Seiyaku) (100 mg/kg, every four days for three times, intravenous) were administered alone or in combination. The major and minor axes of tumors were measured with Digimatic caliper (Mitsutoyo Corporation), and tumor volumes and relative tumor volumes were calculated according to the following formulae: Tumor Volume (TV)=Major axis of tumor (mm)×(Minor axis of tumor)^2 (mm^2)/2 Relative Tumor Volume (RTV)=Tumor volume on measurement day/Tumor volume on the first administration day.
# [3] = system: human scirrhous gastric cancer cell line (HSC-39); assay: Combination use with paclitaxel in subcutaneous transplanted (xenograft) models of HSC-39; conditions: HSC-39 xenograft, nude mice
# Method: as §1, with “Eleven” for “Thirteen”, “paclitaxel (Calbiochem) (14” for “5-fluorouracil (Kyowa Hakko) (50”, “once a day” for “every four days”, “five days,” for “three times,”
# [4] = Compound A 3 mg/kg alone, once a day for four weeks, oral
# [5] = Compound A 10 mg/kg alone, once a day for four weeks, oral
# [6] = Compound A 30 mg/kg alone, once a day for four weeks, oral
structure (smiles),measurement,setting,value
"O=c1[nH]cc(F)c(=O)[nH]1 [5-Fluorouracil, 5-fluorouracil, reference compound]",Relative tumor volume on Day 29 Average ± standard deviation,"[1]; 5-fluorouracil 50 mg/kg alone, every four days for three times, intravenous",5.16 ± 1.37
"COc1cc2nccc(Oc3ccc(NC(=O)NC4CC4)c(Cl)c3)c2cc1C(N)=O [Compound A, 4-(3-chloro-4-(cyclopropylaminocarbonyl)aminophenoxy)-7-methoxy-6-quinolinecarboxamide]",Relative tumor volume on Day 29 Average ± standard deviation,[1]; [4],4.16 ± 1.28
same,Relative tumor volume on Day 29 Average ± standard deviation,[1]; [5],3.73 ± 1.21
same,Relative tumor volume on Day 29 Average ± standard deviation,[1]; [6],2.72 ± 1.33
same,Relative tumor volume on Day 29 Average ± standard deviation,[2]; Compound A 3 mg/kg alone,4.29 ± 1.51
same,Relative tumor volume on Day 29 Average ± standard deviation,[2]; Compound A 10 mg/kg alone,2.93 ± 1.55
same,Relative tumor volume on Day 29 Average ± standard deviation,[2]; Compound A 30 mg/kg alone,1.76 ± 0.92
same,Relative tumor volume on Day 29 Average ± standard deviation,[3]; [4],3.79 ± 1.43
same,Relative tumor volume on Day 29 Average ± standard deviation,[3]; [5],3.27 ± 1.26
same,Relative tumor volume on Day 29 Average ± standard deviation,[3]; [6],1.69 ± 0.72
"CC(=O)O[C@H]1C(=O)[C@@]2(C)[C@H]([C@H](OC(=O)c3ccccc3)[C@]3(O)C[C@H](OC(=O)[C@H](O)[C@@H](NC(=O)c4ccccc4)c4ccccc4)C(C)=C1C3(C)C)[C@]1(OC(C)=O)CO[C@@H]1C[C@@H]2O [Paclitaxel, paclitaxel, reference compound]",Relative tumor volume on Day 29 Average ± standard deviation,"[3]; paclitaxel 14 mg/kg alone, once a day for five days, intravenous",4.26 ± 2.06
